Experimental findings from patent publication US20260000642A1 (Tay Therapeutics Limited, priority 2022, published 2026) are described below.

Data set [1] deals with T1, BRD4 BD2 (Homo sapiens, UniProt O60885).
T1 construct: HEK293 cells were transfected using NanoLuc-BRD4-BD1 or NanoLuc-BRD4-BD2 fusion vectors; host or cells: HEK293
The data set can be described thus: NanoBRET bromodomain assay, NanoLuc-BRD4-BD2 fusion vector in HEK293 cells. Type of data set: cell-based. An excerpt: Bromodomain Assay Procedure
For orientation: Bioluminescence resonance energy transfer reports proximity on the nanometre scale.

Data set [2] is described as follows: Plasma stability assay, rat plasma. Type of data set: in vitro ADME. The note with it: 37° C., Method 1 (5 μM). The gist of the method: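 Compound incubated in plasma at 37° C, either at 5 μM (0.5% DMSO) sampled at 0, 15, 30, 60, 120 min (Method 1) or at 10 μM (2% DMSO) sampled at 0, 15, 30, 60, 90, 120 min (Method 2). Quenched with cold acetonitrile plus internal standard; LC-MS/MS, % remaining relative to 0 min.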

For data set [3], the system named is IL-22. The data set can be described thus: Human PBMC assay, IL-22 by ELISA (CD2/CD3/CD28 bead stimulation). Format: cell-based. The following applies: 72 hours. As for the experimental part: CD2, CD3, and CD28 antibody-coated beads from the T-cell activation/expansion kit (Miltenyi Biotec) were added to the PBMC at a bead-to-cell ratio of 1:2. The mixture of PBMCs and beads were seeded into the wells of the round-bottom 96-well plate at a concentration of 2×10^5 cells/well in a total volume of 200 μL. The cells were cultured for 72 hours at 37° C. and 5% CO2 and then supernatants were collected and IL-17A and IL-22 levels were measured by ELISA. […] The final compound concentration ranged from 30,000 nM to 0.005 nM and the final DMSO concentration per well was 0.3%. PBMCs were seeded at approximately […] in the wells of the 96-well tissue culture plate in a total volume of 190 μL. The plate was incubated for 1 hour at 37° C. and 5% CO2. […] The cells were then cultured for 24 hours at 37° C. and 5% CO2. The supernatant was collected and CXCL10 levels were measured by ELISA.

In data set [4] the test system is hydroxyproline. The data set can be described thus: UUO model: kidney hydroxyproline by ELISA. Type of data set: in vivo, rat. The note with it: UUO rats; 30 mg/kg; compared with sham and UUO + vehicle. The text has this: Serum for blood biochemistry analysis was collected into centrifuge tubes without coagulant four hours after final dosing. Blood plasma samples from group 3 was collected into tubes with K2EDTA four hours after final dosing. At the conclusion of the study (end of the 14-day period), animals were euthanized. Kidney tissue was collected four hours after final dosing. Ligated side kidney was divided into three copies 1/3 fix into 10% formalin for H&E analysis, 1/3 into RNA for PCR analysis of tissue biomarkers Col1a1, TGF-b1, MCP-1, IL-1b, IL-6, IL-17, TNF-a, and Timp1, and 1/3 for hydroxyproline assay analyzed by ELISA. RNA was extracted from tissue using the RNeasy mini kit (Qiagen). RNA concentration was measured using a NanoDrop One Spectrophotometer (ThermoFisher) and converted to cDNA using a High-Capacity RNA-to-cDNA kit (Invitrogen). RT-PCR was performed to measure levels of mRNA of different targets using TaqMan® Gene Expression Master Mix and TaqMan® probe/primer sets on a QuantStudio 6 Real-Time PCR System (ThermoFisher). Fold change in target gene expression was determined using the ΔΔCt method.
A general note: ELISA stands for enzyme-linked immunosorbent assay.

For the compound `CNC(=O)c1[nH]c(C(=O)NC2CCC2)cc1O[C@@H](C)c1ccccc1` [Example 101, N^5-cyclobutyl-N^2-methyl-3-(1-phenylethoxy)-1H-pyrrole-2,5-dicarboxamide], in data set [1], the “selectivity for BDII relative to GSK620” value is “greater than about two orders of magnitude”. For the same compound, the “Plasma Stability (% remaining at 120 minutes) Rat” value in data set [2] was 61%. The “IC50 for IL-22 relative to GSK620” value in data set [3] was “substantially lower 1050”. Moreover, in data set [4], the hydroxyproline levels entry is listed as “No significant differences”.
